Measurements as given in article PMC4257840 (Journal of Medicinal Chemistry, 2014).

Columns and labels:
[1] = target: T1, Human recombinant cathepsin L2 (Homo sapiens, UniProt O60911); assay: Protease counter-screening: Cathepsin L2; assay type: biochemical
T1 construct: host or cells: NS0 cells
Experimental: (§1) Appendix 7. Protease Counter -Screening
(§2) Protease counter-screeni ng was performed using the methods described below. Initial screening was conducted in duplicate using a single test substance concentration of 10 µ M .
(§3) Additional assays were conducted in replicate for selected pairin gs of test s ubstance and enz yme in order to enable the determination of IC50 values using conventional procedures.
(§4) Determination of K i was made using the Batch K i program (Biokin Ltd, Pullman, WA) to derive values from the Morrison equation: […]
Where [E ] is the active enz yme concentration, Kiapp is the apparent inhibition const ant, v 0 is the control velocit y in the absence of inhibitors, vb is the background velocity, v is the initial reaction velocit y in the presence of inhibitor, and I is the inhibitor concentration.Thence:
Where [S ] is the substrate concentration and KM is the Michealis constant.
Caspase 1: Activity against human recombinant caspase 1 expressed in E. coli was tested using Ac-YVAD- AMC as the substrate. Test compound or vehicle was pre- incubated with 600 […]
followed by excitation/emission at 485/535 nm. […]
AMC formation was read at 360 nm/465 nm.
Cathepsin L2: Human recombinant cathepsin L2 expressed in NS0 cells was used as the enzyme source. […] Form ation of AMC was measured at 360 […]
The amount of AMC formed was read spectrofluorimetricall y at 360 nm/465 nm. […]

[2] = Measurement of LogD7.4 (n-octanol/PBS shake); assay type: physicochemical; settings: single determination, n-octanol/PBS pH 7.4; read-out: Log D7.4
Experimental: Appendix 4. Measurement of LogD7.4
Test compounds (~1 mg) were weighed into 2 mL HPLC vials. n- Octanol (0.7 mL), pre-saturated with 10 mM phosphate buffered saline pH7.4 (PBS), was added to each vial followed b y PBS (0. 7 mL), which had been pre-saturat ed with n-octanol. The mixtures were shaken for 90 min and then centrifuged for 10 min at 4,000 rpm. The upper organic l ayer (0.2 m L) and the aqueous la yer (0.5 mL) were removed from each vial and anal yz e d b y LC -MS. Mass spect ral anal ysis was used to confirm peak identity whilst the concentration of compound was assessed by a diode arra y det ecto r. The logD for each compound was calculated b y takin g th e lo g of its concentration ratio between the oct anol and aqueous la ye r s.Given the robustness of the assa y and the fact that the info rmation was us ed onl y for gen eral guid ance, thes e measu rements were based on singlicate det erminations.

[3] = target: T2, angiotensin converting enzyme from rabbit lung (Oryctolagus cuniculus, UniProt P12822); assay: Protease counter-screening: Angiotensin converting enzyme; assay type: biochemical
T2 construct: rabbit lung; from tissue; host or cells: rabbit lung
T2 sequence (P12822 34-1310): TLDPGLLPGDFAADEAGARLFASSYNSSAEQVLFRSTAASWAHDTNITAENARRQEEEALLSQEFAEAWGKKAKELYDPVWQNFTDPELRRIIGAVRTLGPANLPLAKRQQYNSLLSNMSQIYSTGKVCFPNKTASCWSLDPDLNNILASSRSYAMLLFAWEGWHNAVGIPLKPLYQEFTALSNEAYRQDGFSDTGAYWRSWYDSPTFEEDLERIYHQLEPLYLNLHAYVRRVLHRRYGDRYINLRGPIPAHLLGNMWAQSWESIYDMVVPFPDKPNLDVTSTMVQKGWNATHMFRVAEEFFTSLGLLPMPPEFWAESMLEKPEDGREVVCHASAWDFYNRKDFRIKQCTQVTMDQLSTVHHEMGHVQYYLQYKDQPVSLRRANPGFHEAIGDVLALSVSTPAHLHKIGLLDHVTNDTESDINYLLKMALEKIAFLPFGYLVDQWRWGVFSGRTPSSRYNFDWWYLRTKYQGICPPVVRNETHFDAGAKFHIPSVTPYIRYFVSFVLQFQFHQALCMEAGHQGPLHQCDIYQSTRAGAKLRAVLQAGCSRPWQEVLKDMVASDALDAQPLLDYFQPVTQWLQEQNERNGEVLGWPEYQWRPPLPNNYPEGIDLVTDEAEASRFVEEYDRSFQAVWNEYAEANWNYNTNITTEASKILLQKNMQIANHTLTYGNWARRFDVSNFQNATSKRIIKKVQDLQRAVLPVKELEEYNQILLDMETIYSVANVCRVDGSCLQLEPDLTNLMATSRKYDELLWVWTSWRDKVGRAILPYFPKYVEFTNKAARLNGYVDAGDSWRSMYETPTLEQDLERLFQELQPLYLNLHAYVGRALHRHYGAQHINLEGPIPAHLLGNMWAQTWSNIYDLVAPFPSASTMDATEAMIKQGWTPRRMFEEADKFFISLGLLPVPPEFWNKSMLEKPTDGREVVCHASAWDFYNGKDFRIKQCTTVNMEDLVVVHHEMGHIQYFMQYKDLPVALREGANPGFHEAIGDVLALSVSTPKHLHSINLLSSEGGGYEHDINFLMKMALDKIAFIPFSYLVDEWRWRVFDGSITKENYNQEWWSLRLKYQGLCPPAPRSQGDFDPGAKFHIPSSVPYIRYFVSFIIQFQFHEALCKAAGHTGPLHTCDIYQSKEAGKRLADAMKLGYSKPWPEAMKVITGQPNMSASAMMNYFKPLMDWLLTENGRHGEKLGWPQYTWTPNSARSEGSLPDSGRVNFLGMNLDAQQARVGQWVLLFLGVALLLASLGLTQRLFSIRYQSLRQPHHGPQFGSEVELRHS
Experimental: as §1, §2, §3, §4
MMP-9: Human recombinant MMP-9 proenz yme ex pressed in mammalian cells was activated with APMA for 60 min at 37 °C. […] The amount of MCA-P LG formed was read spectrofluorimetricall y at 340 nm/400 nm.
ADAM-17/TACE: Human recombinant ADAM-17 expressed in Sf21 insect cells was used as enz yme sour ce. […] T he amount of MCA-P LAQA formed w as read spectro fluorimetricall y at 340 nm/400 nm.
Angiotensin converting enzyme: Test compound or vehicle was pre- incubated in modified HEPES buffer pH 7.5 for 15 min at 25 °C with 31 mU/mL angiotensin converting enz yme from rabbit lung. […] The amount of substrate remaining was read spectrophotometricall y at 340 nm and used to deri ve the extent of reaction and its inhibition. […]

T1 sequence (O60911 114-334): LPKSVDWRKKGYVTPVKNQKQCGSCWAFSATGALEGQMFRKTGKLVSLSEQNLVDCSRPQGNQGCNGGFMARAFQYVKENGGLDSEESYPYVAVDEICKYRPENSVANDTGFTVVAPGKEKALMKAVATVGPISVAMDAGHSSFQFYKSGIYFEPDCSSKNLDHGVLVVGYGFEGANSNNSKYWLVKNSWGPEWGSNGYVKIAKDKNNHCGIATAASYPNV

CC(C)[C@H](NC(=O)[C@H](C)NC(=O)[C@@H](NC(=O)c1ccccc1)C(C)(C)C)C(=O)C(=O)NCc1ccccc1 [Compound 38, N-{(S)-1-[(S)-1-((S)-1-Benzylaminooxalyl-2-methyl-propylcarbamoyl)-ethylcarbamoyl]-2,2-dimethyl-propyl}-benzamide]
IC50 [1]: 3.53 µM | logD at 1.5 h [2]: 3.2 | inhibition at 10 µM [3]: 0%
